# Measurements as given in patent US20220144847A1, “HETEROCYCLIC COMPOUND, PHARMACEUTICAL COMPOSITION COMPRISING SAME, PREPARATION METHOD THEREFOR, AND USE THEREOF” (Sichuan Kelun-Biotech Biopharmaceutical Co., Ltd., priority 2019, published 2022).
# Where two headings read alike, the source gives them in different places.
# How the values were obtained:
# [1] = target: RET-WT (Homo sapiens, UniProt P07949); experiment: RET inhibition experiment (HTRF KinEASE-TK kit), wild-type RET enzyme; assay type: biochemical; details: read-out: The IC50 (nM) for inhibiting RET-WT
# Sequence of RET-WT (P07949 29-1114): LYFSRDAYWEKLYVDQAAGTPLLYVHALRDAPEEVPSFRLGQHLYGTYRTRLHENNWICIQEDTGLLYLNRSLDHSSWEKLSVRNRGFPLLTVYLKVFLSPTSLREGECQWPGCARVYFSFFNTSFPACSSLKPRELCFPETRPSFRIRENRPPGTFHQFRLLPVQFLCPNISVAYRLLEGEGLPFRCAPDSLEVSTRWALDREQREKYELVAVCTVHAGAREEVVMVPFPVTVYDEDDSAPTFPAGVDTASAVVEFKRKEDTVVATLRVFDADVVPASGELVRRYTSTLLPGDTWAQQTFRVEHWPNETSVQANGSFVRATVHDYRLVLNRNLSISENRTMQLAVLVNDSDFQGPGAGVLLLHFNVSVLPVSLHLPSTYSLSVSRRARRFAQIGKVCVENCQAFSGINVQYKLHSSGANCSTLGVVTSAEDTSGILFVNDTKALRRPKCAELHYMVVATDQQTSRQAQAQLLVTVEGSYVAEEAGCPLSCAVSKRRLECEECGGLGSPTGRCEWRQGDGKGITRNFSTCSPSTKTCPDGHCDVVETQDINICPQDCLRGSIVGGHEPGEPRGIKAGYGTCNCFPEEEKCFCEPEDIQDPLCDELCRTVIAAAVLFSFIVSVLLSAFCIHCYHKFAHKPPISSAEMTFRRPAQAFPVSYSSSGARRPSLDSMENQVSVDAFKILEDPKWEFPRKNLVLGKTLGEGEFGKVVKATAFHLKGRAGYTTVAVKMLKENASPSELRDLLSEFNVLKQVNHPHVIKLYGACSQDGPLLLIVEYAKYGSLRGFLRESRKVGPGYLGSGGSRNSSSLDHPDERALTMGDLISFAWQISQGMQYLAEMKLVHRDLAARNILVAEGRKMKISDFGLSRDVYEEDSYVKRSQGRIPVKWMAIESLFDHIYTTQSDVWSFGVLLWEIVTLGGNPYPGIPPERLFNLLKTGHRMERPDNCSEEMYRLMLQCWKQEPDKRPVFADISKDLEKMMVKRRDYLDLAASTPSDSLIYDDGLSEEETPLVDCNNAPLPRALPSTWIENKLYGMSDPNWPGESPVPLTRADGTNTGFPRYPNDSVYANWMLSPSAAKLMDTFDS
# Experimental: (§1) Experimental method: […] After incubation at room temperature for 40 min, TK antibody-cryptate and streptavidin-XL665 were added, and the test was performed after incubation at room temperature for 45 min. With the solvent group (DMSO) as the negative control and the buffer group (without RET enzyme) as the blank control, the relative inhibitory activity percentages (i.e., inhibition rates) of different concentrations of the compounds were computed as per the following formula: […] The relative inhibitory activity percentages of different concentrations of the compounds were plotted with respect to the compound concentrations, and the curve was fitted according to a four-parameter model to compute the IC50 value as per the following formula: y=min+(max-min)/(1+(x/IC50)^(-Hillslope)) where y is the relative inhibitory activity percentage, max is the maximum value of the fitted curve, min is the minimum value of the fitted curve, x is the logarithmic concentration of the compound, and Hillslope is the slope of the curve.
# [2] = target: VEGFR2 (Homo sapiens, UniProt P35968); experiment: VEGFR2 inhibition experiment (HTRF KinEASE-TK kit); assay type: biochemical; details: read-out: IC50 for inhibiting VEGFR2
# Sequence of VEGFR2 (P35968 20-1356, species assumed): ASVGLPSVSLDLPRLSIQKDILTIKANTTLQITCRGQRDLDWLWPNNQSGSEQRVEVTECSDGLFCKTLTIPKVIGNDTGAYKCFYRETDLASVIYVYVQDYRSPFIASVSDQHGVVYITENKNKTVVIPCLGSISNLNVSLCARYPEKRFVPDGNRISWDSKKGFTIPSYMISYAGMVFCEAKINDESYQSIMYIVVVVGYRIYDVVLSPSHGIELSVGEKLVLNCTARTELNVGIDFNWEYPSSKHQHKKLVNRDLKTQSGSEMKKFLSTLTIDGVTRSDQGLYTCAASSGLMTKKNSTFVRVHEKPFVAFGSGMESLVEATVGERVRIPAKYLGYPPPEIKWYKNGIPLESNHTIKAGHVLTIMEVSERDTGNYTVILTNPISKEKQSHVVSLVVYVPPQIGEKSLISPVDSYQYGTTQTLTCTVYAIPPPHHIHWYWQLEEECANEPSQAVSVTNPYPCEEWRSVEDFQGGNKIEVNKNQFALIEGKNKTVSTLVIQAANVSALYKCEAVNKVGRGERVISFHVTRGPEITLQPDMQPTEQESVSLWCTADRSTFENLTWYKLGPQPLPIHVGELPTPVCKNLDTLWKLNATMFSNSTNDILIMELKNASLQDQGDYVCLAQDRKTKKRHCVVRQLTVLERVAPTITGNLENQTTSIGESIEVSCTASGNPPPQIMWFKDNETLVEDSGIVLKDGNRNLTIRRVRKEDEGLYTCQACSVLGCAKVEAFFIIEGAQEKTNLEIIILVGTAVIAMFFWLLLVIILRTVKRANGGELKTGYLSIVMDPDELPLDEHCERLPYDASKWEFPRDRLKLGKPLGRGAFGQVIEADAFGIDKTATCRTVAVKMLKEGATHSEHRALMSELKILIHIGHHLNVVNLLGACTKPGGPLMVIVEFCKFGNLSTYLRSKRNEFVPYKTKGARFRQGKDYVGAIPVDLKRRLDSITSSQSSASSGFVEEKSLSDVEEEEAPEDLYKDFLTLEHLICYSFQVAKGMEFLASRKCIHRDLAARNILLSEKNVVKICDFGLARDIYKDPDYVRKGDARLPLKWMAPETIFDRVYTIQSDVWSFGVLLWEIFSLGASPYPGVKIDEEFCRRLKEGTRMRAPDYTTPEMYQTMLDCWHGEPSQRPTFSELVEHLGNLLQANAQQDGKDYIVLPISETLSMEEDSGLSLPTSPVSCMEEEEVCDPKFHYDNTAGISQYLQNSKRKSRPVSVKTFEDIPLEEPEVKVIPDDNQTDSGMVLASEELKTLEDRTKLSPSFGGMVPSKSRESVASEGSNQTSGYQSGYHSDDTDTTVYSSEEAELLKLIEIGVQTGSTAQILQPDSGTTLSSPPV
# Procedure, shortened: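 HTRF KinEASE-TK format: enzyme and compound were preincubated 30 min at room temperature, then substrate and ATP added for 40 min, followed by cryptate antibody/streptavidin-XL665 detection for 45 min. Inhibition was normalised to DMSO and no-enzyme controls; IC50 from a four-parameter fit.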
# [3] = target: RET-V804M (Homo sapiens, UniProt P07949, V804M); experiment: RET inhibition experiment (HTRF KinEASE-TK kit), mutant RET-V804M; assay type: biochemical; details: read-out: The IC50 (nM) for inhibiting V804M
# Sequence of RET-V804M (P07949 29-1114 V804M): as the sequence (P07949 29-1114) above, with V776M counted along it
# Procedure, shortened: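 Enzyme was pre-incubated with compound at room temperature for 30 min, then substrate and ATP were added for a 40 min reaction. HTRF signal was read after 45 min with TK antibody-cryptate and streptavidin-XL665. IC50 came from a four-parameter fit of percent inhibition against DMSO and no-enzyme controls.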
# [4] = target: T1, RET-CCDC6 (Homo sapiens, UniProt P07949); experiment: RET inhibition experiment (HTRF KinEASE-TK kit), fusion-type RET enzyme; assay type: biochemical; details: read-out: The IC50 (nM) for inhibiting RET-CCDC6
# T1 construct: CCDC6 fusion partner (Q16204 for human); the other entry of the earlier key: CCDC6 (Q16204, Coiled-coil domain-containing protein 6)
# T1 sequence (P07949 with tags, fused parts or gaps): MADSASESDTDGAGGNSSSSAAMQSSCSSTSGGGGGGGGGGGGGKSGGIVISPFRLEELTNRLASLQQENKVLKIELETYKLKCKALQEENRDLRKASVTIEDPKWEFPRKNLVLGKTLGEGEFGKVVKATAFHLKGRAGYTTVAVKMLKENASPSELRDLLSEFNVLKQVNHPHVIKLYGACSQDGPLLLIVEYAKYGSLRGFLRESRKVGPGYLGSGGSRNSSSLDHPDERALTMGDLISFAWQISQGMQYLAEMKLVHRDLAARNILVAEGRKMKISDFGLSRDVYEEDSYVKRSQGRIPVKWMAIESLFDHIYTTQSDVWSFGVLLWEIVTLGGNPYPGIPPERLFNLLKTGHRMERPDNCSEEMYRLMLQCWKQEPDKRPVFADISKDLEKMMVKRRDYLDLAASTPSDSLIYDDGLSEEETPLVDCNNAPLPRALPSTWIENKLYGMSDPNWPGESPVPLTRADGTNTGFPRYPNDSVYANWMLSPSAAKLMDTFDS
# Experimental: as §1
# [5] = target: RET-V804L (Homo sapiens, UniProt P07949, V804L); experiment: RET inhibition experiment (HTRF KinEASE-TK kit), mutant RET-V804L; assay type: biochemical; details: read-out: The IC50 (nM) for inhibiting RET-V804L
# Sequence of RET-V804L (P07949 29-1114 V804L): as the sequence (P07949 29-1114) above, with V776L counted along it
# Experimental: as §1
# [6] = Pharmacokinetics and tissue distribution of compounds in rats; assay type: in vivo; details: male, SD, rat, PO 5 mg/kg; for AUC(0-t): read-out: AUC AUClast; for Cmax: read-out: Peak concentration Cmax; for Kp: read-out: T/P Ratio of AUClast in tissue to plasma; for Tmax: read-out: Time to peak concentration Tmax
# Experimental: By intragastric administration (PO) of BLU-667 (prepared according to Example 5 of WO2017/079140A1) and Compound 17 to male SD rats respectively, the plasma concentrations and the tissue concentrations of BLU-667 and Compound 17 in brains, lungs and thyroid of rats were determined to investigate the pharmacokinetic characteristics. The dosage of administration by PO was 5 mg/kg, and the solvent was 0.5% MC (methylcellulose). With administration by PO, blood samples were collected at different time points (0 h before administration, and 0.25 h, 0.5 h, 1 h, 2 h, 4 h, 6 h, 8 h, and 24 h after administration). The blood samples were anticoagulated with dipotassium edetate, and centrifuged to provide plasma samples, which were stored at −80° C. Rats were sacrificed by exsanguination from abdominal aorta at 0.5 h, 2 h, 8 h, and 24 h after PO administration. Brain, lung and thyroid were collected, washed, and homogenized with normal saline at a certain ratio, to provide tissue samples which were stored at −80° C. The plasma samples and tissue samples were processed with precipitated protein and then analyzed by LC-MS/MS. The pharmacokinetic parameters were computed using WinNonlin 6.3 software and using a non-compartmental model.
smiles,measurement,setting,value
"Cc1cc(Nc2cc(C)[nH]n2)nc(-c2ccc(N3CC4CC(C3)N4Cc3ccc(-n4cc(F)cn4)nc3)nc2)n1 [Compound 17, 2-(6-(6-((6-(4-fluoro-1H-pyrazol-1-yl)pyridin-3-yl)methyl)-3,6-diazabicyclo[3.1.1]heptan-3-yl)pyridin-3-yl)-6-methyl-N-(5-methyl-1H-pyrazol-3-yl)pyrimidin-4-amine]",IC50,[1],1.32 ± 0.31 nM
same,IC50,[2],63 ± 11.8 nM
same,IC50,[3],1.03 ± 0.47 nM
same,IC50,[4],2.5 ± 0.55 nM
same,IC50,[5],6.54 ± 2.43 nM
same,AUC(0-t),[6]; brain,1010 ng·h/mL
same,Cmax,[6]; brain,153 ng/mL
same,Kp,[6]; brain,0.15
same,Tmax,[6]; brain,2 h
same,AUC(0-t),[6]; lung,79600 ng·h/mL
same,Cmax,[6]; lung,9620 ng/mL
same,Kp,[6]; lung,11.7
same,Tmax,[6]; lung,2 h
same,AUC(0-t),[6]; plasma,6790 ng·h/mL
same,Cmax,[6]; plasma,772 ng/mL
same,Kp,[6]; plasma,1
same,Tmax,[6]; plasma,2 h
same,AUC(0-t),[6]; thyroid,11400 ng·h/mL
same,Cmax,[6]; thyroid,1870 ng/mL
same,Kp,[6]; thyroid,1.68
same,Tmax,[6]; thyroid,8.49 h
